Laboratory results taken from ChEMBL document CHEMBL1201862, “PubChem BioAssay data set” (2004).
Active and inactive are the calls of the source.

How the values were obtained:
[1] = molecular target: 1-acylglycerol-3-phosphate O-acyltransferase ABHD5/Perilipin-5 (Homo sapiens, UniProt Q00G26+Q8WTS1); test: Luminescence-based biochemical high throughput dose response assay for inhibitors of the interaction of the lipase co-activator protein, abhydrolase domain containing 5 (ABHD5) with perilipin-5 (MLDP; PLIN5) (2K validation set). [Related pubchem assays (depositor defined):AID493035, AID493241]
1-acylglycerol-3-phosphate O-acyltransferase ABHD5/Perilipin-5, sequence (Q00G26 whole entry, the tested form may be a part): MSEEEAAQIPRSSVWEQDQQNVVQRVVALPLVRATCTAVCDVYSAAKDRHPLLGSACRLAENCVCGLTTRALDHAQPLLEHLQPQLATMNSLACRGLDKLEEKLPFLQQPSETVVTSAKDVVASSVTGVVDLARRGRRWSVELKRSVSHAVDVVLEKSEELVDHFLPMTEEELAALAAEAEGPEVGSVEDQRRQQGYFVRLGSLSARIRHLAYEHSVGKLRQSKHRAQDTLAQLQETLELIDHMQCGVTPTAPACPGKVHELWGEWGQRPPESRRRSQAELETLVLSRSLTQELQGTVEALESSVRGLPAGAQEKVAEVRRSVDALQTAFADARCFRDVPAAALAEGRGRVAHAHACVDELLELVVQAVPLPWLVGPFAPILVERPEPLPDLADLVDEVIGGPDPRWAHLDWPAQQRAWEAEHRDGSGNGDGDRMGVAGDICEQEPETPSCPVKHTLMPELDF
1-acylglycerol-3-phosphate O-acyltransferase ABHD5/Perilipin-5, sequence (Q8WTS1 whole entry, the tested form may be a part): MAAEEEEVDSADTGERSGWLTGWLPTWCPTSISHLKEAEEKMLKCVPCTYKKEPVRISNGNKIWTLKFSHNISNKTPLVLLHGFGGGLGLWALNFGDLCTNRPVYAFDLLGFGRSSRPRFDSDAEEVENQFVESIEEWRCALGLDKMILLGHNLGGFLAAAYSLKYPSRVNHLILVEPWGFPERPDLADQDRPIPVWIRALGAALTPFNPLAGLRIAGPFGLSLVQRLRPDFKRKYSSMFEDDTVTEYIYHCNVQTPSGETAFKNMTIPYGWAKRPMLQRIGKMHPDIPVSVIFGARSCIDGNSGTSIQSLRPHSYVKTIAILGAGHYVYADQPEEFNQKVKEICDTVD

[2] = molecular target: Perilipin-1/ABHD5 (Homo sapiens, UniProt O60240+Q8WTS1); test: Luminescence-based biochemical high throughput dose response assay for inhibitors of the interaction of the lipase co-activator protein, abhydrolase domain containing 5 (ABHD5) with perilipin-1 (PLIN1) (2K validation set). [Related pubchem assays (depositor defined):AID493027, AID493057]
[3] = molecular target: Genome polyprotein (dengue virus type 2, UniProt P29990); test: flavivirus cap methylation enzyme inhibition – biochemical, confirmation dose response, primary screen (AID 588689); type: functional
Genome polyprotein, sequence (P29990 2492-3391 limits assumed): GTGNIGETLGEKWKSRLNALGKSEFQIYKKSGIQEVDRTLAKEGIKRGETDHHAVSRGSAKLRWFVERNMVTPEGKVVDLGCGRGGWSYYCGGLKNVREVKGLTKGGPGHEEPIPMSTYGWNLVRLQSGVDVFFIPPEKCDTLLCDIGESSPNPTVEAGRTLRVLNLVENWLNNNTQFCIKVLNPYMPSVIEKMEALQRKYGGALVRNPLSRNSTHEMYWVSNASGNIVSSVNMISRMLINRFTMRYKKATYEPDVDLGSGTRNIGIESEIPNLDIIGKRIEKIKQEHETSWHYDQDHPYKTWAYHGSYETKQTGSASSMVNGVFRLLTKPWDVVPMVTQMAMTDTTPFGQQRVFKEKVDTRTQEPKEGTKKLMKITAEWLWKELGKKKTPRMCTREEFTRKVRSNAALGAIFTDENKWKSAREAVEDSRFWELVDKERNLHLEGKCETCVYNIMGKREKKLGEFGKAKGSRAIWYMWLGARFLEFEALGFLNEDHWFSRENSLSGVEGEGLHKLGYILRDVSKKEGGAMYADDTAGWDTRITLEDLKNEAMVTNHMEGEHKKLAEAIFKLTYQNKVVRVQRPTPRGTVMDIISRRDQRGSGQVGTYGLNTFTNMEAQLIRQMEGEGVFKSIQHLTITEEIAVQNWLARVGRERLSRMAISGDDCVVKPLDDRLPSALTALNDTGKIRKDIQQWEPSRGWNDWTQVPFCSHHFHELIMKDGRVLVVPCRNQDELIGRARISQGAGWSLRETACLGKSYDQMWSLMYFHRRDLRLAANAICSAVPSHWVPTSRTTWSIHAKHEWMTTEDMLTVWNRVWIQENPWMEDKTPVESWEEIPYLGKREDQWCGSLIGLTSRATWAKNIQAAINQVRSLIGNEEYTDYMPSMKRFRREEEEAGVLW

[4] = cells; type: functional
[5] = molecular target: C-C chemokine receptor type 6 (Homo sapiens, UniProt P51684); test: antagonism of CCR6 beta-arrestin recruitment – cell-based, luminescent beta-arrestin readout, dose response (AID 504728); type: functional
[6] = molecular target: Beta-galactosidase (Escherichia coli, UniProt Q8VNN2); test: detection-enzyme interference by beta-gal modulators – biochemical, E. coli enzyme, set 3, artefact control for CCR6 antagonist project, dose response (AID 504712); type: functional
[7] = Luminescence Cell-Based Dose Retest to Confirm Inhibitors of Cancer Stem Cells. [Related pubchem assays (depositor defined):AID2717, AID2721]; type: functional; conditions: Homo sapiens
[8] = Vero E6 cell cytotoxicity, dose response, cytotoxicity control for non-replicating M. tuberculosis project, secondary assay (AID 492998); type: functional, VeroE6; conditions: Vero C1008
[9] = test system: Streptococcus sp. 'group A'; test: Streptococcus pyogenes SK(-)GAS viability under kanamycin – luminescence, BacTiterGlo, confirmation, counter-screen for streptokinase expression inhibitor project, dose response (AID 1900); type: functional, organism-based
[10] = HepG2 cell cytotoxicity, dose response, cytotoxicity control for non-replicating M. tuberculosis project (AID 489018); type: functional; conditions: Mycobacterium tuberculosis
[11] = test system: Streptococcus; test: GAS UMAA2166 growth inhibition – luminescence, BacTiterGlo, counter-screen for streptokinase expression inhibitor project, dose response (AID 1915); type: functional, organism-based;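 also: potency for reduction of bacterial viability or growth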
[12] = THP-1 cell cytotoxicity, dose response, cytotoxicity control for non-replicating M. tuberculosis project (AID 489025); type: functional
[13] = molecular target: T1, Intestinal-type alkaline phosphatase (Homo sapiens, UniProt P09923); test: human intestinal alkaline phosphatase activators, dose response, biochemical, luminescence, uHTS hits (AID 463120); type: functional
T1 sequence (P09923 whole entry): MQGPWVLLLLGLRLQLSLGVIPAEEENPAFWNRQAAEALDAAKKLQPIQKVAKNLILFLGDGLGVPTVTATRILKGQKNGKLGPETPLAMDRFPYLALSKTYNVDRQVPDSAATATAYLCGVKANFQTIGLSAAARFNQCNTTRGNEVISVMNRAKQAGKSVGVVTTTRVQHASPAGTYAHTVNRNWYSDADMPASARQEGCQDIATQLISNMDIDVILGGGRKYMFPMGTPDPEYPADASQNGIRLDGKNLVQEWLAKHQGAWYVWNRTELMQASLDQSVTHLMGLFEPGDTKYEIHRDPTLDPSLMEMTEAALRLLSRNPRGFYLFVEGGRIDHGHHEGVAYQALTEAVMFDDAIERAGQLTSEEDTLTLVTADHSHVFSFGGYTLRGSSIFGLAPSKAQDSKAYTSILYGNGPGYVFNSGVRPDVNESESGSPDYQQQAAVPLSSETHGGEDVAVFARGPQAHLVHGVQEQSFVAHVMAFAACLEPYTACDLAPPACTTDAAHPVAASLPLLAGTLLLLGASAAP

[14] = molecular target: T1, Intestinal-type alkaline phosphatase; test: Dose Response confirmation of uHTS hits from a small molecule inhibitors of human intestinal alkaline phosphatase via a luminescent assay. [Related pubchem assays (depositor defined):AID2544, AID2574]; type: functional
[15] = alpha-synuclein stem-loop luciferase translation blockers – H4 neuroglioma cells, luminescence, confirmation (AID 1988); type: functional, cell-based
[16] = test system: BJ; test: BJ-TERT-LT-ST fibroblast viability loss – cell-based, RAS-independent, luminescence, dose response (AID 1935); type: functional; conditions: Homo sapiens;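 also: BJ fibroblasts immortalized with TERT plus LT and ST oncogenes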
[17] = test system: J774.A1; test: Confirmation of image-based Screening Assay for Inhibitors of Phagocytosis. [Related pubchem assays (depositor defined):AID1029, AID1643]; type: functional, cell-based; conditions: Mus musculus
[18] = alpha-synuclein stem-loop translation blockers – luminescence, H4 neuroglioblastoma cells, dose confirmation, confirmation (AID 2454); type: functional, cell-based;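 also: H4 neuroglioblastoma cells carrying an alpha-synuclein 5'UTR luciferase reporter; potency for inhibition of the luciferase signal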
[19] = luciferase reporter signal reduction – luminescence, H4-C neuroglioblastoma cells, dose response (AID 2458); type: functional, cell-based;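 also: H4 neuroglioblastoma cells stably carrying a luciferase reporter gene fusion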
[20] = test system: BJ; test: cells; type: functional, cell-based; conditions: Homo sapiens
[21] = luciferase reporter signal suppression in cells – H4 neuroglioma cells, luminescence, dose response (AID 1990); type: functional, cell-based
[22] = DRD fibroblast viability loss – cell-based, non-viral oncogenic, luminescence, dose response (AID 1934); type: functional; conditions: Homo sapiens
[23] = test system: BJ; test: BJ-TERT fibroblast viability loss – cell-based, RAS-independent, luminescence, dose response (AID 1933); type: functional; conditions: Homo sapiens
[24] = cells; type: functional, cell-based
[25] = molecular target: G2/mitotic-specific cyclin-B1 (Homo sapiens, UniProt P14635); test: HeLa cell cycle G2/M accumulation – FACS, mechanism study for Wee1 degradation inhibitor project, late-stage follow-up, panel member Cyclin B Degradation (AID 2088)
[26] = molecular target: Wee1-like protein kinase (Homo sapiens, UniProt P30291); test: HeLa cell cycle G2/M accumulation – FACS, mechanism study for Wee1 degradation inhibitor project, late-stage follow-up, panel member Wee1 Degradation (AID 2088)
Wee1-like protein kinase, sequence (P30291 whole entry): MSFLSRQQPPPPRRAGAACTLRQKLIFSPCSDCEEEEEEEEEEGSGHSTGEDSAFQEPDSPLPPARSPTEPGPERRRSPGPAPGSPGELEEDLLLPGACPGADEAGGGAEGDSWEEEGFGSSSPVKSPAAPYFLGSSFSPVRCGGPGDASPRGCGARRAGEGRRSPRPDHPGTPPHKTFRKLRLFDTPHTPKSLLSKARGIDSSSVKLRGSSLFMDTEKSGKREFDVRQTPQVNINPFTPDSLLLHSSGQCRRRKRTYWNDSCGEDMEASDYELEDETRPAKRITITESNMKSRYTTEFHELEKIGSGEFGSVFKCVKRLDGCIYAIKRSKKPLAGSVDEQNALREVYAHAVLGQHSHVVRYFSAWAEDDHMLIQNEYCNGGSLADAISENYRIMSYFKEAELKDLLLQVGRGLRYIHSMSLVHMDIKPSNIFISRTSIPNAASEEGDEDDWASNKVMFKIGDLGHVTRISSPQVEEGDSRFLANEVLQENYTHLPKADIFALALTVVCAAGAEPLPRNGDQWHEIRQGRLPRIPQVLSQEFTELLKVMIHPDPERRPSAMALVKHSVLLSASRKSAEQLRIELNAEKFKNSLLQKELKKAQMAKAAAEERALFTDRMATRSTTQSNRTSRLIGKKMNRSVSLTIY

[27] = molecular target: Voltage-dependent T-type calcium channel subunit alpha-1H (Homo sapiens, UniProt O95180); test: human CACNA1H calcium influx blockade – cell-based, synthetic library set 1, calcium flux (AID 493022); type: functional
[28] = molecular target: Cyclin-dependent kinase 5/CDK5 activator 1 (Homo sapiens, UniProt Q00535); test: blockade of human CDK5 activity – biochemical, cherry-picked samples, set 2, dose response (AID 504545)
Cyclin-dependent kinase 5/CDK5 activator 1, sequence (Q00535 whole entry): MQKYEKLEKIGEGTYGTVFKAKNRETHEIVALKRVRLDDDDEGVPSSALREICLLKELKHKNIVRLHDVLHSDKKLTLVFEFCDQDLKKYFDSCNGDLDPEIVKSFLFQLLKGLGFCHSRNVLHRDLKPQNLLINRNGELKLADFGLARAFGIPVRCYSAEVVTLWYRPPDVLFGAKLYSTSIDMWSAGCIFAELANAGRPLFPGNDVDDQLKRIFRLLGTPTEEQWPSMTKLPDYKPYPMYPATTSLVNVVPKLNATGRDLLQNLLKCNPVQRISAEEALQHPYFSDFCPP
Cyclin-dependent kinase 5/CDK5 activator 1, sequence (Q15078 whole entry, further chain): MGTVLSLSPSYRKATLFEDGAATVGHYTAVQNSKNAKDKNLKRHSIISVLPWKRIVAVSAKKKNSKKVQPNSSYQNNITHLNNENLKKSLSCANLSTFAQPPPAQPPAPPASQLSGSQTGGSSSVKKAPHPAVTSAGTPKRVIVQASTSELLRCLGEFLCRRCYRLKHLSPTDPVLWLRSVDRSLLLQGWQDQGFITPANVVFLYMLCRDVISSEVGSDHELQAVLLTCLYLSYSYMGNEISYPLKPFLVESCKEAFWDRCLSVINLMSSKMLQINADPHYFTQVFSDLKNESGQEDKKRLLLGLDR

[29] = molecular target: Voltage-gated N-type calcium channel alpha-1B subunit/Amyloid beta A4 precursor protein-binding family A member 1 (Homo sapiens, UniProt Q00975+Q02410); test: disruptors of Mint-PDZ/N-type channel peptide interaction – biochemical, HTRF, set 2, SAR follow-up (AID 434980); type: functional
[30] = molecular target: T2, Botulinum neurotoxin type A (Clostridium botulinum (strain Hall / ATCC 3502 / NCTC 13319 / Type A), UniProt P0DPI1); test: High-throughput multiplex microsphere dose response for inhibitors of toxin protease, specifically Botulinum neurotoxin light chain A protease, compounds from Powder Set 01.; type: functional, Clostridium botulinum A str. ATCC 3502; conditions: read-out: EC50_MICROM
T2 sequence (P0DPI1 2-448 limits assumed): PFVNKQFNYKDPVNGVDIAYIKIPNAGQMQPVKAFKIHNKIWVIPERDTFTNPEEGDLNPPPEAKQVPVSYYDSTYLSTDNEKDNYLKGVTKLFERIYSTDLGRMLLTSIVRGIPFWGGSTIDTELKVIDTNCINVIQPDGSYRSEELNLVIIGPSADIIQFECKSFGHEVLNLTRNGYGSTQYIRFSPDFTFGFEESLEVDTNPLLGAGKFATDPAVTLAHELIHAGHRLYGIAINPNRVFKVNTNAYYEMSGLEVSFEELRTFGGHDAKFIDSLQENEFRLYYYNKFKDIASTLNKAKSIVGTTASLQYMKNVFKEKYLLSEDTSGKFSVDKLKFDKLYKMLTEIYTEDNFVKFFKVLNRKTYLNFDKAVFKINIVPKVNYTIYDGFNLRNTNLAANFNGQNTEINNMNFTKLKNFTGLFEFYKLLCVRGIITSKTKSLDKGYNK

[31] = molecular target: ORF 73 (Human herpesvirus 8, UniProt O40947); test: KSHV LANA DNA-binding disruption – biochemical, fluorescence polarization, cherry-picked samples, dose response (AID 504725); set-up: species or system Human gammaherpesvirus 8;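 also: fluorescence polarization of a labeled DNA duplex reporting LANA DNA binding; potency is for inhibitors that block LANA binding to the DNA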
[32] = molecular target: T2, Botulinum neurotoxin type A; test: High-throughput multiplex microsphere dose response for inhibitors of toxin protease, specifically Botulinum neurotoxin light chain A protease, compounds from Cherry Pick 01.; type: functional; conditions: read-out: EC50_MICROM
[33] = molecular target: Ephrin type-A receptor 4 (Mus musculus, UniProt Q03137); test: EphA4 ligand-binding antagonists – biochemical, colorimetric, mouse EphA4, primary screen (AID 689); type: functional
[34] = molecular target: Lethal factor (Bacillus anthracis, UniProt P15917); test: High-throughput multiplex microsphere dose response for inhibitors of toxin protease, specifically Lethal Factor protease, compounds from Powder Set 01.; type: functional, Bacillus anthracis str. A2012; conditions: read-out: EC50_MICROM
[35] = molecular target: T3, Zinc finger protein mex-5 (Caenorhabditis elegans, UniProt Q9XUB2); test: potency of MEX-5 RNA-binding blockers – biochemical, C. elegans, fluorescence polarization, dose response (AID 1960)
T3 sequence (Q9XUB2 whole entry): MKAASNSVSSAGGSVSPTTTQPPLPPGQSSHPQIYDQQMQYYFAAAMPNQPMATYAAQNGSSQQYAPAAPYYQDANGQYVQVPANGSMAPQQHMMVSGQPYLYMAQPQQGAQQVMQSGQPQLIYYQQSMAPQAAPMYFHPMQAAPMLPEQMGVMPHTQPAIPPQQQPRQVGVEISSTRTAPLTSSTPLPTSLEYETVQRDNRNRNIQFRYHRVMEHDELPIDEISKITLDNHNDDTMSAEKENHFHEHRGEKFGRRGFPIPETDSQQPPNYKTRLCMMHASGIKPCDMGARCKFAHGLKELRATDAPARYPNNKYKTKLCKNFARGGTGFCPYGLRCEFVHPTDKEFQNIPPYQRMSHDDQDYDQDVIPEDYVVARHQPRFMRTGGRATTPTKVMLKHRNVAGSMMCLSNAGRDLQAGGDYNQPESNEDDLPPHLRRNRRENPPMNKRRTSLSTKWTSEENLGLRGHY

[36] = molecular target: Botulinum neurotoxin type F (Clostridium botulinum, UniProt P30996); test: High-throughput multiplex microsphere dose response for inhibitors of toxin protease, specifically Botulinum neurotoxin light chain F protease, compounds from Powder Set 01.; type: functional, Clostridium botulinum Bf; conditions: read-out: EC50_MICROM
Botulinum neurotoxin type F, sequence (P30996 1-436 limits assumed): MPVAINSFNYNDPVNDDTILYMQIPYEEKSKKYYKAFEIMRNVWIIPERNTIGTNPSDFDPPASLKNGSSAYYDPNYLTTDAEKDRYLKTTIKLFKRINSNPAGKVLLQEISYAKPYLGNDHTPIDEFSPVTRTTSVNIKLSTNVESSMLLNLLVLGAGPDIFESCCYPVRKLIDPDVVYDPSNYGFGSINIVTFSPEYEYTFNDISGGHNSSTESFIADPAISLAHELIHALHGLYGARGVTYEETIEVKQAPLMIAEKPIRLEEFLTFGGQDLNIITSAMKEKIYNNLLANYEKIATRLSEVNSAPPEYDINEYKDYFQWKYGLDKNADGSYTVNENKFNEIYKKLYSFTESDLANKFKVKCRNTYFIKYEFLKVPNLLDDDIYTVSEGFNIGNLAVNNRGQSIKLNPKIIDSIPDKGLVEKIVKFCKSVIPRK

[37] = molecular target: T4, RNA-binding protein pos-1 (Caenorhabditis elegans, UniProt G5EF15); test: disruptors of C. elegans POS-1 RNA interaction – biochemical, fluorescence polarization, dose response (AID 1964);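 also: purified POS-1 fused to maltose binding protein made in E. coli; potency of compounds blocking POS-1 binding to fluorescent RNA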
T4 sequence (G5EF15 whole entry): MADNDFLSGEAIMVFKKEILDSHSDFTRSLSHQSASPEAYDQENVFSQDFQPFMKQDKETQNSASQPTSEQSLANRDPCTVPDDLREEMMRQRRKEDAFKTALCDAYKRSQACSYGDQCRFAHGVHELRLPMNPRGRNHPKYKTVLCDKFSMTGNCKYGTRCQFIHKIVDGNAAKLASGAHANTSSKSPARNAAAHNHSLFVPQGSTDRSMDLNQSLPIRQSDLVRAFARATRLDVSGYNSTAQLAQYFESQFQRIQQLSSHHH

[38] = molecular target: T5, Kappa-type opioid receptor (Homo sapiens, UniProt P41145); test: SAR analysis of small molecule antagonists of the kappa opioid receptor via a luminescent beta-arrestin assay - Set 4. [Related pubchem assays (depositor defined):AID1777, AID1778, AID1785, AID1786, AID1966, AID2133, AID2136, AID2285]; type: functional
T5 sequence (P41145 whole entry): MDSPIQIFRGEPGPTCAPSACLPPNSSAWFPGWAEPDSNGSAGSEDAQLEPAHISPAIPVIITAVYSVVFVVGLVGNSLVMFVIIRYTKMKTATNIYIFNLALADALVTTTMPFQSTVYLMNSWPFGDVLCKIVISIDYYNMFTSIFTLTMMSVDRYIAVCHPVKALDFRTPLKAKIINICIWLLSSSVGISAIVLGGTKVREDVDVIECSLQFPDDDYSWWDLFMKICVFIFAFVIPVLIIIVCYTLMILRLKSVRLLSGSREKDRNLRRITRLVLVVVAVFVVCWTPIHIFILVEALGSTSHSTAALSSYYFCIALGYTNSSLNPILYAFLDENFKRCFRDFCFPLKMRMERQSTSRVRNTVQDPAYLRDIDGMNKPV

[39] = molecular target: T5, Kappa-type opioid receptor; test: SAR analysis of small molecule antagonists of the kappa opioid receptor via a luminescent beta-arrestin assay - Set 6. [Related pubchem assays (depositor defined):AID1777, AID1778, AID1785, AID1786, AID1966, AID2133, AID2136, AID2285]; type: functional
[40] = molecular target: Mu-type opioid receptor (Homo sapiens, UniProt P35372); test: SAR Analysis of Antagonists of the MOR Receptor using an Image-Based Assay - Set 3. [Related pubchem assays (depositor defined):AID1777, AID1785, AID1786, AID1966, AID2133, AID2136, AID2284, AID2285, AID2420]; type: functional
[41] = molecular target: Delta-type opioid receptor (Homo sapiens, UniProt P41143); test: SAR Analysis of Antagonists of the DOR Receptor using an Image-Based Assay - Set 3. [Related pubchem assays (depositor defined):AID1777, AID1785]; type: functional;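 also: U2OS cells expressing DOR1 and beta-arrestin GFP stimulated with 100 nM SNC80; imaging of GFP-tagged beta-arrestin moving into spots after receptor activation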
[42] = molecular target: T5, Kappa-type opioid receptor; test: SAR analysis of Antagonists of the Kappa Opioid Receptor (KOR) using an Image-Based Assay - Set 4. [Related pubchem assays (depositor defined):AID1777, AID1785]; type: functional

CCOc1ccc(N2C(=O)NC(=O)/C(=C\c3cc(OC)c(OC)cc3[N+](=O)[O-])C2=O)cc1
IC50 [1]: 2.8 µM (active)
IC50 [2]: 2.21 µM (active)
IC50 [3]: 27.6 µM (active)

Cc1cc(NCc2ccccn2)n2nc(C)c(-c3ccc(Cl)cc3)c2n1
IC50 [4]: 2.1 µM (active)
IC50 [5]: > 66.6 µM (inactive)
IC50 [6]: > 66.6 µM (inactive)
AC50 [7]: 3.86 µM (active)
CC50 [8]: 15.1 µM (active)
EC50 [9]: 2.89 µM (active)
CC50 [10]: 3.6 µM (active)
EC50 [11]: 6.9 µM (active)
CC50 [12]: 6.61 µM (active)

O=C(Nc1cccc(-c2cccc(F)c2)c1)C1CCN(C2CCC2)CC1
EC50 [13]: > 100 µM (inactive)
IC50 [14]: > 100 µM (inactive)

COc1ccccc1C1CC(=O)Nc2cc3c(cc21)OCCO3 (configuration not stated)
EC50 [15]: < 0.1 µM (active)
EC50 [16]: 1.4 µM (inconclusive)
IC50 [17]: > 25 µM (inactive)
EC50 [18]: > 12 µM (not active)
EC50 [19]: 2.17 µM (active)
EC50 [20]: 19.4 µM (active)
EC50 [21]: 7.13 µM (inconclusive)
EC50 [22]: 2 µM (active)
EC50 [23]: 7.46 µM (active)
EC50 [24]: > 12 µM (not active)

Cc1ccc(Nc2cc(C)nn2-c2nc(C)cc(O)n2)cc1
EC50 [25]: > 55.7 µM (inactive)
EC50 [26]: > 55.7 µM (inactive)

O=C(COc1ccccc1F)Nc1nnc(-c2ccc3c(c2)OCO3)o1
EC50 [27]: 10 µM (active)

COc1ccc(C(=O)c2sc(NC(C)C)nc2N)cc1OC
AC50 [28]: 90.5 µM (active)

O=C(NCCN1CCCCC1)c1cc(-c2ccco2)nc2ccccc12
IC50 [29]: > 56.8 µM (inactive)

c1ccc(-c2cn3nc(-c4ccccc4)c(-c4ccccc4)nc3n2)cc1
EC50 [30]: 0.6 µM (active)
AC50 [31]: 47.3 µM (active)
EC50 [32]: 5.8 µM (active)
IC50 [33]: 1.2 µM (active)
EC50 [34]: 1.6 µM (active)
EC50 [35]: 3.84 µM (active)
EC50 [36]: 5.3 µM (active)
EC50 [37]: 2.82 µM (active)

COc1ccc(N2CCN(CCCCNC(=O)Cn3c(=O)c4cccn4c4c(C)ccnc43)CC2)cc1
IC50 [38]: 0.907 µM (active)
IC50 [39]: 1.59 µM (active)
IC50 [40]: > 32 µM (inactive)
IC50 [41]: > 32 µM (inactive)
IC50 [42]: 0.00521 µM (active)
